Columns and labels:
mice [1] = experiment: Catalepsy (rod test) in mice; assay type: in vivo; conditions: mice (FIG. 5)
Procedure: (§1) Male Non-Swiss Albino mice (Harlan Sprague-Dawley) were housed (4 mice/cage) in rooms with temperature and humidity controlled and water and food (Harlan Teklad) freely available. Mice were kept on a 12-hr light:dark cycle.
A custom-built 8-mm rod that is raised 3.5 cm from the lab benchtop was used. 61KS19 (10 mg/kg) or haloperidol (1 mg/kg) were administered i.p. 60 min before the start of the session. The forepaws of each animal is placed on the rod and the time to step down is measured. If the animal steps off immediately, another attempt is made until the animal stays on for more than 10 sec or 10 attempts have been made. A maximum of 2 min is allowed at which time the animal is taken away from the rod and returned to the homecage. Each dose or dose combination was tested in a separate group of animals (n=6). Averages and standard errors were calculated and compared using an ANOVA and post-hoc Dunnett's t-tests.

mice [2] = experiment: Spontaneous locomotor activity in mice; assay type: in vivo; conditions: 10 mg/kg i.p., mice (FIG. 1)
Procedure: as §1
(§2) Plastic 20×20×30 cm activity cages were equipped with photocell beams (AccuScan Instruments). For spontaneous activity, 61KS19 (1, 3 and 10 mg/kg) was administered alone i.p. 30 min before the session. For hyperactivity experiments, mice were treated with 0.3 mg/kg dizocilpine, 3.0 mg/kg d-amphetamine or 3.0 mg/kg scopolamine i.p. 15 min before the session (15 min after 61KS19). Locomotor data were collected during a 15 min session without habituation in a lit room. Each dose combination was tested in a separate group of animals (n=8). Distance traveled (cm) was calculated and averaged followed by ANOVA and post-hoc Dunnett's t-test comparisons.

M1 muscarinic receptor = biological target: T1, M1 muscarinic receptor (Homo sapiens, UniProt P11229); experiment: R-SAT functional assay, muscarinic M1 receptor; assay type: cell-based
T1 construct: expressed in transfected cells; host or cells: NIH-3T3 cells (ATCC CRL 1658)
T1 sequence (P11229 1-460): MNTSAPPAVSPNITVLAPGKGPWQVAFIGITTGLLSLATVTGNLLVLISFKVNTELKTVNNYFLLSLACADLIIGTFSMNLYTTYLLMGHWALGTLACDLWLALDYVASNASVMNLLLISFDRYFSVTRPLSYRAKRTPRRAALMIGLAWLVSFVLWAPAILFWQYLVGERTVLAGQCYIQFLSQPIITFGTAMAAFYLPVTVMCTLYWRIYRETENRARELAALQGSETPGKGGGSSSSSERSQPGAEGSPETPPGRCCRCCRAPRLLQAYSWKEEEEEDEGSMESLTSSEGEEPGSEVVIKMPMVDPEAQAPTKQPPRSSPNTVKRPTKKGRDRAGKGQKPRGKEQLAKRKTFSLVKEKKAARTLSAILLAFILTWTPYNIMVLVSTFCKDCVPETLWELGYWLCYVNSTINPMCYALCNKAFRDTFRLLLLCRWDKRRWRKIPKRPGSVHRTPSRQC
Procedure: (§3) The M1 and M4 muscarinic receptor subtypes were cloned substantially as described by Bonner et al., (1987) Science […] p. 527 and Bonner et al, (1988) Neuron 1, p. 403. R-SAT assays were carried out substantially as described in U.S. Pat. No. 5,707,798 and by Braüner-Osbome, H. B. and Brann, M. R. (1995), Eur. J. Pharmacol. 295:93-102. NIH-3T3 cells (available from the American Type Culture Collection as ATCC CRL 1658) were transfected with plasmid DNA encoding the m1 and m4 receptors and plasmid DNA encoding β-galactosidase. Transfected cells were grown in the presence of between 1 nM and 40 μM of the test compound for 5 days. On day 5, the cells were lysed using 0.5% nonidet-P and β-galactosidase expression was quantified using the chromogenic substrate o-nitrophenyl-p-D-galactoside (ONGP).
(§4) Data were normalized relative to the maximum response of the cells to the muscarinic agonist carbachol, and the following equation was fitted to the data: response=minimum+(maximum−minimum)/(1+([ligand]/EC50)) % Efficacy was defined as (maximum−minimum)/(maximum response of cells to carbachol). pEC50=−log (EC50). Where data gave a bell-shaped curve, “maximum” was defined as the highest observed response.

mice [3] = experiment: Amphetamine-induced hyperactivity in mice; assay type: in vivo; conditions: 3 and 10 mg/kg i.p., mice (FIG. 2)
Procedure: as §1, §2

mice [4] = experiment: MK-801 (dizocilpine)-induced hyperactivity in mice; assay type: in vivo; conditions: 10 mg/kg i.p., mice (FIG. 4)
Procedure: as §1, §2

[5] = biological target: T2, human dopamine D2 receptor (Homo sapiens, UniProt P14416); experiment: [3H]-Spiperone radioligand binding to D2 receptor membranes; conditions: tSA cell membranes, 150 pM [3H]-Spiperone; read-out: D2 [3H]Spiperone pIC50 (converted)
T2 construct: expressed in transfected cells; host or cells: tSA cells
T2 sequence (P14416 1-414 isoform P14416-2): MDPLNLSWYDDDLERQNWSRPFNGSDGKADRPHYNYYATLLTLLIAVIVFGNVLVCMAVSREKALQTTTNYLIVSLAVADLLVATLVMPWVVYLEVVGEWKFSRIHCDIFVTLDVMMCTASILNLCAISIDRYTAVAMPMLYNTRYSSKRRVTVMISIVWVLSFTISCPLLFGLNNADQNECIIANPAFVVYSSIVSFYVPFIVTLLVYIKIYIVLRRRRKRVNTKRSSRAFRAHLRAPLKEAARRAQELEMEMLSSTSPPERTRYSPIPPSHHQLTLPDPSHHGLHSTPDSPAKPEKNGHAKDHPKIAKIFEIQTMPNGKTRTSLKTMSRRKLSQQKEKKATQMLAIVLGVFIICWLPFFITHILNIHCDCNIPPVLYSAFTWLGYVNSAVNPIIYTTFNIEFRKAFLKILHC
Procedure: The D2 dopamine receptor subtype was cloned substantially as described by Stormann, Gdula, Weiner and Brann, 1990 [Mol Pharmacol 37, 1-6]. Cell membranes expressing the D2 receptor were prepared by transfecting tSA cells (Chahine, M., Bennet, P. B., George, A. L., Horn, R. (1994) Pfluegers Arch. 427, 136-142) with 10 μg plasmid DNA encoding the human dopamine D2 receptor and 40 μl Superfect (Qiagen). The cells were harvested 48 hours and transfection and membranes were prepared by homogenizing the cells using a Polytron harvester in 20 mM Hepes, 10 mM EDTA, pH 7.4. The homogenate was centrifuged for 30 minutes at 37,000 g. The pellet was homogenized again in 60 ml 20 mM Hepes, 5 mM EDTA. The homogenate was centrifuged for 30 minutes at 37,000 g. The supernatant was discarded. The pellet was homogenized again in 10 ml 20 mM Hepes, 1 mM EDTA. The resultant membranes were frozen at −80° C.
The membranes were combined with 150 pM [^3H]-Spiperone (Amersham-Pharmacia, 107 Ci/mmol) and ligand concentrations between 1 nM and 10 μM, or haloperidol concentrations between 0.1 nM and 1 μM in 460 μl 20 mM Hepes, 1 mM EDTA, 0.1% (w/v) bovine serum albumin. Nonspecific binding was defined as binding in the presence of 1 μM haloperidol. The membranes were incubated for 4 hours at 37° C., and then filtered onto Packard GFB Filterplates using a Packard harvester. The membranes were dried and 50 μl Microscint (Packard) was added to each well. The amount of bound radioligand was quantified using a Packard Topcount scintillation counter.
Data were normalized relative to the maximum inhibition of [^3H]-Spiperone binding by 1 μM haloperidol, and the following equation was fitted to the data: % inhibition=minimum+(maximum−minimum)/(1+([ligand]/[IC50])) % inhibition was defined as (maximum−minimum)/(maximum response of cells to haloperidol). pIC50=−log (IC50). NT=not tested. Results

mice [6] = experiment: Scopolamine-induced hyperactivity in mice; assay type: in vivo; conditions: 1, 3 and 10 mg/kg i.p., mice (FIG. 3)
Procedure: as §1, §2

M4 muscarinic receptor = biological target: T3, M4 muscarinic receptor (Homo sapiens, UniProt P08173); experiment: R-SAT functional assay, muscarinic M4 receptor; assay type: cell-based
T3 construct: expressed in transfected cells; host or cells: NIH-3T3 cells (ATCC CRL 1658)
T3 sequence (P08173 1-479): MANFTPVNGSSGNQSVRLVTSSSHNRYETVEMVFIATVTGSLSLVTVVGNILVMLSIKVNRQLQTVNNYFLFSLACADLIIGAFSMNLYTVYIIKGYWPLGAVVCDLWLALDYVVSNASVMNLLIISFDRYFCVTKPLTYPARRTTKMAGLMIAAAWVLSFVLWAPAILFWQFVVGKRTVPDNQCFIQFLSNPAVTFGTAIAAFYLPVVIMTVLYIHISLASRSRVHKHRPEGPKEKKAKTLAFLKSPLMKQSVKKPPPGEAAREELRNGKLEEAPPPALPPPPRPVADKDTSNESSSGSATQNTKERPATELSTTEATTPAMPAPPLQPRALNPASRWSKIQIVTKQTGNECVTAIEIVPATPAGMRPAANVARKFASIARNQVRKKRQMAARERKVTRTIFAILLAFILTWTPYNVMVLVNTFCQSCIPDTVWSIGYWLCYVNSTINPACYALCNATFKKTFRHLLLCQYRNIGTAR
Procedure: as §3, §4

[7] = human, in vivo; cited from earlier work
dopamine receptors = conditions: Shannon et al.; cited from earlier work

With O=C(CCCN1CCC(O)(c2ccc(Cl)cc2)CC1)c1ccc(F)cc1 [haloperidol, reference compound] the induction of catalepsy (mice [1]; haloperidol 1 mg/kg i.p.) was “unlike haloperidol”.
In the case of CCCCC1CCN(CCCn2c(=O)[nH]c3ccccc32)CC1 [Compound 61KS-19, 1-(3-[4-Butylpiperidino]propyl)-1,3-dihydrobenzimidazol-2-one], the spontaneous locomotor activity (mice [2]) is reported as “reduction of spontaneous locomotor activity”, the “binding efficacy for the M1 receptor subtype” value (M1 muscarinic receptor) is reported as “high binding efficacy” and the Emax (M1 muscarinic receptor; NIH3T3, R-SAT, transfected NIH-3T3 cells, relative to maximum response to carbachol, read-out: M1 % Efficacy) is reported as 115%. The EC50 (M1 muscarinic receptor; R-SAT, transfected NIH-3T3 cells, read-out: M1 pEC50 (converted)) was 25.1 nM, the induction of catalepsy (mice [1]; 10 mg/kg i.p.) was “failed to induce catalepsy” and the amphetamine-induced hyperactivity (mice [3]) was “reduction of amphetamine-induced hyperactivity”. The MK-801-induced hyperactivity (mice [4]) was “reduction of MK-801-induced hyperactivity”, the IC50 [5] was 794 nM and the scopolamine-induced hyperactivity (mice [6]) was “reduction of scopolamine-induced hyperactivity”. For the same compound, the “binding efficacy for the M4 receptor subtype” value (M4 muscarinic receptor) was “high binding efficacy”, the Emax (M4 muscarinic receptor; NIH3T3, R-SAT, transfected NIH-3T3 cells, relative to maximum response to carbachol, read-out: M4 % Efficacy) was 141% and the EC50 (M4 muscarinic receptor; R-SAT, transfected NIH-3T3 cells, read-out: M4 pEC50 (converted)) was 31.6 nM.
For Nc1c2c(nc3ccccc13)CCCC2 [tacrine], the “patients with elevated liver transaminases” value [7] is given as “about 30%”.
For CCCCCCOc1nsnc1C1=CCCN(C)C1 [Xanomeline], the “affinity for dopamine receptors” value (dopamine receptors) is given as “little or no affinity for dopamine receptors”.

Reference: patent US7291611B2, “Benzimidazolidinone derivatives as muscarinic agents” (ACADIA Pharmaceuticals Inc., priority 2001, dated 2007)
